Assay results taken from patent publication US4029671A, “3-[(5-nitro-2-imidazolyl)pyrazol-5-yl]oxamic acid derivatives” (priority 1976, dated 1977).
Converted amounts (≈) assume the structure as drawn. Where a name gives a salt, the structure may show the parent alone.

What was measured:
[1] = tested on: Bacteroides fragilis sp. fragilis 1877; experiment: Agar dilution susceptibility of anaerobic bacteria (Chart 1); type: cell-based
[2] = tested on: Bacteroides fragilis sp. fragilis 103; experiment: as above; type: cell-based
[3] = tested on: Bacteroides fragilis sp. fragilis 104; experiment: as above; type: cell-based; conditions: Bacteroides fragilis, 24 h, read-out: 24 Hr. MIC
[4] = tested on: Bacteroides fragilis sp. fragilis 106; experiment: as above; type: cell-based
[5] = tested on: Bacteroides fragilis sp. fragilis 107; experiment: as above; type: cell-based; conditions: Bacteroides fragilis, 24 h, read-out: 24 Hr. MIC
[6] = tested on: Bacteroides fragilis sp. fragilis 108; experiment: as above; type: cell-based
[7] = tested on: Bacteroides fragilis sp. fragilis 110; experiment: as above; type: cell-based
[8] = tested on: Bacteroides fragilis sp. fragilis 111; experiment: as above; type: cell-based
[9] = tested on: Bacteroides fragilis sp. fragilis 112; experiment: as above; type: cell-based
[10] = tested on: Bacteroides fragilis sp. fragilis 113; experiment: as above; type: cell-based
[11] = tested on: Bacteroides fragilis sp. fragilis 1451; experiment: as above; type: cell-based; conditions: Bacteroides fragilis, 24 h, read-out: 24 Hr. MIC
[12] = tested on: Bacteroides fragilis sp. fragilis 1470; experiment: as above; type: cell-based
[13] = tested on: Bacteroides fragilis sp. fragilis 2; experiment: as above; type: cell-based; conditions: Bacteroides fragilis, 24 h, read-out: 24 Hr. MIC
[14] = tested on: Bacteroides fragilis sp. fragilis 9; experiment: as above; type: cell-based
[15] = tested on: Bacteroides fragilis sp. fragilis 62; experiment: as above; type: cell-based
[16] = tested on: Bacteroides fragilis sp. fragilis 1874; experiment: as above; type: cell-based
[17] = tested on: Bacteroides fragilis sp. vulgatis 1563; experiment: as above; type: cell-based
[18] = tested on: Bacteroides fragilis sp. thetaiotaomicron 1438; experiment: as above; type: cell-based
[19] = tested on: Bacteroides fragilis sp. thetaiotaomicron 1900A; experiment: as above; type: cell-based
[20] = tested on: Actinomyces israelii W855; experiment: as above; type: cell-based; conditions: 24 h, agar dilution, 37° C., read-out: 24 Hr. MIC
[21] = tested on: Clostridium perfringens 81; experiment: microbe, parasite or virus in culture; type: cell-based; conditions: Clostridium perfringens, 81, 24 h, read-out: 24 Hr. MIC, agar dilution, 37° C.
[22] = tested on: Clostridium septicum 1128; experiment: Agar dilution susceptibility of anaerobic bacteria (Chart 1); type: cell-based; conditions: Clostridium septicum, 1128, 24 h, 37° C.
Protocol: The susceptibility of anaerobic bacteria, both gram positive and gram negative, to a representative number of the novel compounds of this application was determined using the agar dilution method. The bacteria used were isolated from patients hospitalized at the Indiana Univerisity Medical Center. The isolates were identified in the anaerobe laboratory of the Medical Center by the criteria established by Dowell et al., Laboratory Methods in Anaerobic Bacteriology. Public Health Serv. Publ. NO. 1803 (1968) [Center for Disease Control, Atlanta, Ga.]; and by Smith et al., The Pathogenic Anaerobic Bacteria, pages 96- 136 (1968) [Charles C. Thomas, Publisher, Springfield, Ill.]. All the organisms were maintained in chopped meat glucose medium (Scott Labs) at room temperature.
The method used for the agar dilution tests was based on the studies of Sutter et al., Antimicrob. Ag. Chemother. 3, 188-193 (1973). The strains of anaerobic bacteria were grown in 16×× 120 mm. tubes for 16 to 18 hours in Thioglycolate medium without indicator-- 135C (Becton, Dickinson and Co.), to which was added 5 mcg. of hemin per milliliter prior to autoclaving, plus 1 mg. of sodium bicarbonate and 0.1 mcg. of filter-sterilized menadione per milliliter after autoclaving. The strains were adjusted to the turbidity of the No. 1 McFarland standard in Thioglycolate medium without indicator-- 135C containing an additional 0.13 percent Bacto-agar (Difco). Each strain was then applied to the surface of the petri plate (100 mm× 15 mm.) by means of a replicator.
For the agar dilution studies, two-fold dilutions of the test compounds were prepared in deionized water to which was then added laked sheep blood and filter-sterilized menadione so the concentrations after the agar dilution were 5 percent and 10 mcg./ml. respectively. An equal volume of double strength Brucella agar (Becton, Dickinson and Co.) was mixed with each dilution in a water bath held at 50° C. and then poured onto the petri dishes.
All of the procedures were done inside a plastic glove box, except for the incubation of the growth tubes and the pouring of the plates. After the plates hardened, they were put inside the glove box for a minimum of 2 hours before they were inoculated. Generally, the glove box procedures of Aranki et al., Applied Microbiology 17, 568-576 (1969), were followed, but the following modifications were used. Dry materials were introduced into the glove box by evacuating the lock to 28 inches of mercury and filling once with nitrogen gas, followed by evacuating in the same manner and filling with an 80 percent nitrogen plus 10 percent CO2 plus 10 percent hydrogen gas mixture. Liquid media and agar plates were introduced into the glove box by evacuating the lock to 10 inches of mercury and filling with gas four times. The nitrogen gas was used to fill the lock for the first two cycles of evacuation, with the gas mixture described above used for the final two fillings.
All the plates were incubated at 37° C. in Gas Pak jars (Becton, Dickinson and Co.) containing palladium-coated alumina catalysts (reactivated after each use). The results of the agar dilution tests were read after about 24 hours of incubation. The minimum inhibitory concentration (MIC) was recorded as the lowest concentration of test compound at which there was no growth.
The test compounds are identified by the number of the example describing their preparation. The antibiotics clindamycin (C), and erythromycin (E) were also run simultaneously with the novel compounds of this application,for comparison purposes, and the results are included in Chart 1 below.

[23] = tested on: Eubacterium aerofaciens 1235; experiment: as above; type: cell-based; conditions: Collinsella aerofaciens, 1235, 24 h, read-out: 24 Hr. MIC
[24] = tested on: Peptococcus asaccharolyticus 1302; experiment: as above; type: cell-based; conditions: Peptoniphilus asaccharolyticus, 1302, 24 h, read-out: 24 Hr. MIC
Peptococcus prevoti 1281 = experiment: as above; type: cell-based; conditions: 24 h, read-out: 24 Hr. MIC, agar dilution, 37° C.
[25] = tested on: Peptostreptococcus anaerobius 1428; experiment: as above; type: cell-based; conditions: Peptostreptococcus anaerobius, 1428, 24 h, read-out: 24 Hr. MIC
[26] = tested on: Peptostreptococcus intermedius 1264; experiment: as above; type: cell-based; conditions: Peptostreptococcus, 1264, 24 h, read-out: 24 Hr. MIC
[27] = tested on: Propionibacterium acnes 79; experiment: as above; type: cell-based; conditions: Cutibacterium acnes, 79, 24 h, read-out: 24 Hr. MIC
[28] = tested on: Bacteroides fragilis sp. fragilis 1936B; experiment: as above; type: cell-based; conditions: Bacteroides fragilis, 24 h, read-out: 24 Hr. MIC
[29] = tested on: Bacteroides melaninogenicus 1856/28; experiment: as above; type: cell-based; conditions: Prevotella intermedia, 1856/28, 24 h, read-out: 24 Hr. MIC
[30] = tested on: Bacteroides melaninogenicus 2736; experiment: as above; type: cell-based; conditions: 2736, 24 h, read-out: 24 Hr. MIC
[31] = tested on: Bacteroides vulgatis 1211; experiment: as above; type: cell-based; conditions: Bacteroides, 1211, 24 h, read-out: 24 Hr. MIC
[32] = tested on: Bacteroides corrodens 1874; experiment: as above; type: cell-based; conditions: Eikenella corrodens, 1874, 24 h, read-out: 24 Hr. MIC
[33] = tested on: Fusobacterium symbiosum 1470; experiment: as above; type: cell-based; conditions: Fusobacterium, 1470, 24 h, read-out: 24 Hr. MIC
[34] = tested on: Fusobacterium necrophorum 6054A; experiment: as above; type: cell-based; conditions: Fusobacterium necrophorum, 6054A, 24 h, read-out: 24 Hr. MIC
Salmonella typhimurium = experiment: Control of infections caused by Salmonella typhimurium in chickens (Chart 2); type: in vivo; conditions: 60 mg./kg. subcutaneous, day-old chicks, 5 per group, 6 days observation
Protocol: The efficacy of the novel compounds in the control of infections caused by Salmonella typhimurium in chickens was evaluated in the following manner. The test was carried out using day-old chicks weighing approximately 35 g. each. The chicks were divided into groups of 5 chicks per each dosage level. A portion of the chicks received the test compound which was suspended in 0.2 ml. of polyethylene glycol 200 and administered subcutaneously in the neck. […] All the chicks were challenged with a 1:200 dilution of a culture of the organism, 0.1 ml. of the dilution being injected into each chick in the leg intramuscularly. […] The test compounds are identified in the same manner as set forth in experiment 1. In the chart, column 1 lists the compounds tested; column 2, the dosage of test compound in mg./kg.; and column 3, the survival ratio.

[35] = Bacteroides fragilis, 24 h, read-out: 24 Hr. MIC

CC[C@H]1OC(=O)[C@H](C)[C@@H](O[C@H]2C[C@@](C)(OC)[C@@H](O)[C@H](C)O2)[C@H](C)[C@@H](O[C@@H]2O[C@H](C)C[C@H](N(C)C)[C@H]2O)[C@](C)(O)C[C@@H](C)C(=O)[C@H](C)[C@@H](O)[C@]1(C)O [E, erythromycin, reference compound]
MIC [1, 35]: 2 µg/mL (≈ 2.73 µM)
MIC [2, 35]: 4 µg/mL (≈ 5.45 µM)
MIC [3]: 2 µg/mL (≈ 2.73 µM)
MIC [4, 35]: 4 µg/mL (≈ 5.45 µM)
MIC [5]: 2 µg/mL (≈ 2.73 µM)
MIC [6, 35]: 2 µg/mL (≈ 2.73 µM)
MIC [7, 35]: 16 µg/mL (≈ 21.8 µM)
MIC [8, 35]: 2 µg/mL (≈ 2.73 µM)
MIC [9, 35]: 32 µg/mL (≈ 43.6 µM)
MIC [10, 35]: 2 µg/mL (≈ 2.73 µM)
MIC [11]: 0.5 µg/mL (≈ 0.681 µM)
MIC [12, 35]: 8 µg/mL (≈ 10.9 µM)
MIC [13]: 4 µg/mL (≈ 5.45 µM)
MIC [14, 35]: 4 µg/mL (≈ 5.45 µM)
MIC [15, 35]: 8 µg/mL (≈ 10.9 µM)
MIC [16, 35]: 0.5 µg/mL (≈ 0.681 µM)
MIC [17, 35]: 1 µg/mL (≈ 1.36 µM)
MIC [18, 35]: 1 µg/mL (≈ 1.36 µM)
MIC [19, 35]: > 64 µg/mL
MIC [20]: ≤ 0.5 µg/mL
MIC [21]: 1 µg/mL (≈ 1.36 µM)
MIC [22]: 1 µg/mL (≈ 1.36 µM)
MIC [23]: ≤ 0.5 µg/mL
MIC [24]: 1 µg/mL (≈ 1.36 µM)
MIC (Peptococcus prevoti 1281): > 128 µg/mL
MIC [25]: ≤ 0.5 µg/mL
MIC [26]: ≤ 0.5 µg/mL
MIC [27]: ≤ 0.5 µg/mL
MIC [28]: 2 µg/mL (≈ 2.73 µM)
MIC [29]: 4 µg/mL (≈ 5.45 µM)
MIC [30]: 1 µg/mL (≈ 1.36 µM)
MIC [31]: 1 µg/mL (≈ 1.36 µM)
MIC [32]: ≤ 0.5 µg/mL
MIC [33]: ≤ 0.5 µg/mL
MIC [34]: 8 µg/mL (≈ 10.9 µM)

CCOC(=O)C(=O)Nc1c(C#N)c(-c2ncc([N+](=O)[O-])n2C)nn1C [Example 3, N-[4-Cyano-1-methyl-3-(1-methyl-5-nitroimidazol-2-yl)pyrazol-5-yl]oxamic acid, ethyl ester, potassium salt]
24 Hr. MIC ([1]; agar dilution, 37° C., Bacteroides fragilis sp. fragilis 1877, potassium salt): 0.25 µg/mL
24 Hr. MIC ([2]; agar dilution, 37° C., Bacteroides fragilis sp. fragilis 103, potassium salt): 0.125 µg/mL
24 Hr. MIC ([4]; agar dilution, 37° C., Bacteroides fragilis sp. fragilis 106, potassium salt): 0.25 µg/mL
24 Hr. MIC ([6]; agar dilution, 37° C., Bacteroides fragilis sp. fragilis 108, potassium salt): 0.25 µg/mL
24 Hr. MIC ([7]; agar dilution, 37° C., Bacteroides fragilis sp. fragilis 110, potassium salt): 0.5 µg/mL
24 Hr. MIC ([8]; agar dilution, 37° C., Bacteroides fragilis sp. fragilis 111, potassium salt): 0.25 µg/mL
24 Hr. MIC ([9]; agar dilution, 37° C., Bacteroides fragilis sp. fragilis 112, potassium salt): 0.25 µg/mL
24 Hr. MIC ([10]; agar dilution, 37° C., Bacteroides fragilis sp. fragilis 113, potassium salt): 0.5 µg/mL
24 Hr. MIC ([12]; agar dilution, 37° C., Bacteroides fragilis sp. fragilis 1470, potassium salt): 0.25 µg/mL
24 Hr. MIC ([14]; agar dilution, 37° C., Bacteroides fragilis sp. fragilis 9, potassium salt): 0.25 µg/mL
24 Hr. MIC ([15]; agar dilution, 37° C., Bacteroides fragilis sp. fragilis 62, potassium salt): 0.5 µg/mL
24 Hr. MIC ([16]; agar dilution, 37° C., Bacteroides fragilis sp. fragilis 1874, potassium salt): 0.25 µg/mL
24 Hr. MIC ([17]; agar dilution, 37° C., Bacteroides fragilis sp. vulgatis 1563, potassium salt): 0.25 µg/mL
24 Hr. MIC ([18]; agar dilution, 37° C., Bacteroides fragilis sp. thetaiotaomicron 1438, potassium salt): 0.5 µg/mL
24 Hr. MIC ([19]; agar dilution, 37° C., Bacteroides fragilis sp. thetaiotaomicron 1900A, potassium salt): 0.5 µg/mL
Survival Ratio (Salmonella typhimurium; potassium salt): 3/5

Cn1nc(-c2ncc([N+](=O)[O-])n2C)c(C#N)c1NC(=O)C(=O)NO [Example 9, N-[4-Cyano-1-methyl-3-(1-methyl-5-nitroimidazol-2-yl)pyrazol-5-yl]-N'-hydroxyoxamide]
Survival Ratio (Salmonella typhimurium): 4/5
